From patent US20130225694A1, “COMPOSITIONS AND METHODS OF INHIBITING RETINAL DEGENERATION” (Oklahoma Medical Research Foundation, priority 2012, published 2013)

Legend:
Rat Retina = conditions: 50 mg/kg 0.5 hour before light stress 2,700 lux for 24 hours; earlier publication (1); cited from earlier work
rod photoreceptors = test: Recovery of rod photoresponses after bleaching (dark adaptation ERG) in rats; assay type: in vivo, rat; conditions: 50 mg/kg IP
Protocol: Possible defects in the visual cycle were analyzed by measuring the time course of dark adaptation (recovery of rod photoreceptor sensitivity) following a bleaching light exposure. Rats were fully dark-adapted and injected intraperitoneally with PBN (50 mg/kg) or saline. Full-field scotopic ERGs for both eyes were recorded after 3 hours of PBN injection. A single test flash of 2.3 log cd·s/m^2 was presented to elicit the rod a-wave response under fully dark-adapted conditions. Rats were then exposed to a steady field of log 2.3 cd·s/m^2 for 2 minutes in the Ganzfeld dome to bleach rod photoreceptors. Immediately following the bleaching period (time=0 minutes) and every 10 minutes thereafter (time=10, 20, 30, 40, 50, and 60 minutes), the same test flash of 2.3 log cd·s/m^2 was presented. The a-wave responses at the indicated times after bleaching were normalized to the initial dark-adapted response for each rat.
Effect of PBN on the rate of recovery of rod photoresponses: dark adaptation ERG—The damaging effect of bright light requires a functional rhodopsin photopigment (23). It is well established that PBN protects against light damage (1), and the inventors previously speculated that PBN, as part of its protective mechanism, might down-regulate rhodopsin regeneration rate (2). […]

LRAT = target: T1, LRAT (Rattus norvegicus, UniProt Q9JI61); test: Retinyl ester production by LRAT in rat RPE microsomes; assay type: biochemical; conditions: 1 mM PBN
T1 construct: from tissue; host or cells: rat eyecup/RPE microsomes
T1 sequence (Q9JI61 1-231): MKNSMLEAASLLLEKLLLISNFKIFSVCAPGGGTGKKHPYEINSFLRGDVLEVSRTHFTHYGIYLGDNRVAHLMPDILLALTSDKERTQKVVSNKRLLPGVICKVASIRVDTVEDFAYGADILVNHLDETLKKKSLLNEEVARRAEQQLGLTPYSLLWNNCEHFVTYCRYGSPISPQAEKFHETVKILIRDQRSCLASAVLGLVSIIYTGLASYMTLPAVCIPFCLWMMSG
Protocol: Isomerohydrolase activity assay and PBN inhibition—Rats were sacrificed, and eyes were enucleated and dissected to remove the anterior part including lens, vitreous, and retina. The remaining eyecups containing RPE were sonicated 3 times for 20 seconds in a cold 0.32 M sucrose/0.1 M sodium phosphate buffer (pH 7.4). The homogenate was centrifuged (20 minutes, 20,000 g) to sediment sclera, unbroken cells, nuclei and mitochondria. The obtained supernatant was recentrifuged (1 hour, 100,000 g), and the microsomal pellet was resuspended in 10 mM 1,3-bis[tris(hydroxymethyl)-methylamino]propane (BTP), (pH 8.0) and 100 mM NaCl, and stored at −80° C. All-trans-[11,12-^3H]-retinol (1 mCi/ml, 45.5 Ci/mmol, American Radiolabeled Chemical, Inc., St. Louis, Mo.) in N,N-dimethyl formamide was used as the substrate for the isomerohydrolase assay. […] The upper layer was collected, and the generated retinoids were analyzed by normal phase HPLC as described (38). […] The isomerohydrolase activity was calculated from the area of the 11-cis-retinol peak using Radiomatic 610TR software (Perkin Elmer, Boston, Mass.) with synthetic 11-cis-[^3H]-retinol as a standard. […] The inhibition constant for PBN was calculated from the following equation: […] where [I]=concentration of PBN, Vm^i=maximal velocity in the presence of Vm=maximal velocity in the absence of PBN. […]

SMILES: CC(C)(C)/[N+]([O-])=C/c1ccccc1 [Compound 1, α-phenyl-N-tert-butyl nitrone]
- protection of retinal structure and function (Rat Retina): 80-90%
- fully dark-adapted a-wave response (rod photoreceptors; 2.3 log cd·s/m^2 test flash before bleach, n=4): −441.5±70.66 μV
- recovery of the initial fully dark-adapted rod response (rod photoreceptors; 40 minutes after the bleaching illumination): 25%
- LRAT inhibition (production of retinyl ester) (LRAT): not inhibited
